According to US5985927A, “Medicaments for the selective treatment of tumor tissues” (priority 1995, dated 1999):

What was measured:
[1] = test system: mononuclear blood cells (MNCs); assay: toxicity on mononuclear blood cells (MNCs) as a function of extracellular pH (FACScan and XTT-ELISA); assay type: cell-based; settings: extracellular pH in the range from 7.2 to 7.4; FIG. 1B
Description: A skilled person is able to find, with the aid of the above information and using his general expert knowledge and a few simple tests, as described hereinafter, compounds which are used according to the invention as medicinal substance. Thus, the toxicity properties of a substance which comes under consideration can be determined experimentally by the FACScan and the XTT-ELISA techniques. Both methods are known in the prior art. It is possible to investigate suspended cancer cell lines such as, for example, K-562, Raji or Daudi by both techniques, but adherent cancer cell lines only by the XTT-ELISA technique. FACS and XTT techniques can likewise be used to investigate the toxicity of the substances for mononuclear blood cells (MNCs). The proportion of dead cells is detected in the FACS technique by propidium iodide staining, and in the XTT method by conversion of XTT into formazan by mitochondrial dehydrogenase. The methods are described, for example, in Tumor-Biologie 1994, 15, 304 and in the biochemistry catalog of Boehringer Mannheim, Germany 0392.C 73.3.1465554 1 CB, Cat. No. 1465 015. […]

K-562 cancer cells = assay: toxicity effect on K-562 cancer cells as a function of extracellular pH (FACScan and XTT-ELISA); assay type: cell-based
Description: Thus, the toxicity properties of a substance which comes under consideration can be determined experimentally by the FACScan and the XTT-ELISA techniques. Both methods are known in the prior art. […] FACS and XTT techniques can likewise be used to investigate the toxicity of the substances for mononuclear blood cells (MNCs). The proportion of dead cells is detected in the FACS technique by propidium iodide staining, and in the XTT method by conversion of XTT into formazan by mitochondrial dehydrogenase.
To detect pH-sensitive toxic substances, selected substances are allowed to act at various predetermined pH values, for example at pH 5.5, 6.0, 6.5, 7.0 and 7.5, both on tumor cell lines and on MNCs, for example for 4 hours and 24 hours, in order thereafter to measure the number of killed cancer cells or MNCs. Control measurements without addition of pH-sensitive substances are carried out in parallel with this.
The activity of the 4-succinic ester of 2,4-dihydroxybenzoic acid, of trans-3,4-difluorocinnamic acid and of 2,4-dinitrophenol has been investigated. Used for this purpose were the methods of the FACScan and ELISA techniques described above. […] FIG. 2A depicts the effect of trans-3,4-difluorocinnamic acid on K-562 cells. […] FIG. 2B depicts the effect of the same compound on MNCs.

[2] = test system: small-cell lung tumor (LXFS 650); assay: tumor growth of implanted small-cell lung tumor (LXFS 650) in nude mice; assay type: in vivo; settings: tail vein injection, 4 consecutive days, FIG. 4
Description: The three compounds mentioned above by way of example have likewise been investigated for their in vivo suitability in an animal model. Nude mice are chosen as animal model, into which it is possible to implant various human tumors. This makes it possible to investigate the therapeutic efficacy of the substances under defined reproducible conditions. An animal experiment of this type is documented in FIG. 4. A routine method which is conventional in the prior art and is outlined below is used.
A small-cell lung tumor (LXFS 650) whose extra-cellular pH of about 6.9 is close to the physiological pH of 7.2-7.3 is implanted into the nude mice. The therapeutic substance used is, as in FIG. 1, 2,4-di-hydroxybenzoic acid (substance (1)). 3-4 weeks after implantation of the tumor, 15 mice with tumors 5-7 mm in diameter are divided into 3 groups: the first group of 5 serves as control group without therapy, and the substance (1) is injected into the tail vein in a concentration of 200 mg/kg/day in the second group of 5 and in a concentration of 400 mg/kg/day in the third group of 5. In the present experiment, 4 injections into the tail vein were carried out on 4 consecutive days. […] The tumor volumes were determined on days 7, 10, 14 and 17.

[3] = K-562 cancer cells, extracellular pH, FIG. 1A

In the case of O=C(O)CCC(=O)Oc1ccc(C(=O)O)c(O)c1 [4-succinic ester of 2,4-dihydroxybenzoic acid], the “toxicity on MNCs” value [1] is reported as “Negligible toxicity”, the “pH of maximum toxicity effect on K-562 cells” value (K-562 cancer cells; [3]) is reported as 5.7 and the “pH of onset of toxicity effect on K-562 cells” value (K-562 cancer cells; [3]) is reported as ~6.5.
With O=C(O)c1ccc(O)cc1O [substance (1), 2,4-di-hydroxybenzoic acid] the “effect on tumor growth” value ([2]; 200 mg/kg/day, only on day 10) was “onset of a slight effect only on day 10”, the tumor growth ([2]; 400 mg/kg/day, after day 7 and up to day 10) was “cessation of growth” and the “tumor growth after end of therapy” value ([2]; 400 mg/kg/day, after day 10, therapy not continued further) was “the tumor starts to grow again”.
For O=C(O)/C=C/c1ccc(F)c(F)c1 [trans-3,4-difluorocinnamic acid], the “extracellular pH until which the cytotoxic effect on K-562 cells is negligible” value (K-562 cancer cells; cytotoxic effect negligible until the extracellular pH is below this value, K-562 cells, FIG. 2A) was “below 6.5”.
